# Literature values, collected in patent publication US12233082B2, “Compositions and methods for multi-use suppression and acquisition of viruses” (priority 2021, dated 2025).
# What was measured:
# [1] = test system: HSV-2
# [2] = test system: HIV-1; conditions: 500 mg valacyclovir twice daily, 12 weeks, vs placebo
# [3] = test system: HSV; conditions: 500 mg valacyclovir; expected for group 2 from previous research
compound,measurement,setting,value
CC(C)[C@H](N)C(=O)OCCOCn1cnc2c(=O)[nH]c(N)nc21 [valacyclovir],percentage of source partners with HSV-2 shedding in the genital tract (FIG. 1),"[1]; 500 mg valacyclovir daily, N=39 vs placebo N=50, PCR detectable shedding",decreased at a much quicker rate than those taking the placebo
same,risk of transmission of HSV-2,"[1]; 500 mg valacyclovir once daily, 8 months, source partners vs placebo",reduced the risk of transmission of HSV-2
same,"reduction of HIV-1 viral load in plasma, on average",[2],0.37 log10 copies/mL
same,HSV PCR detectability rate median,[3],5% of days
